The text below walks through data of PubChem BioAssay (NCI).

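Protocol summary: plate cells (96-well), add compound at 5 concentrations, incubate 48 h, interpolate endpoints linearly. The concentration for 50% growth inhibition is given as GI50. At the TGI there is no net growth.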

Common to all, as to assay: NCI tumour cell line growth inhibition, 48 h
Test [1] deals with HCT-116 colon.
In test [2] the test system is HT29 colon.
Test [3] deals with K-562 leukemia.
In test [4] the test system is KM12 colon.
Test [5] deals with NCI-H460 lung.
The subject of test [6] is PC-3 prostate.
Test [7] concerns SF-268 CNS.
The subject of test [8] is SN12C renal.
Test [9] concerns SNB-19 CNS.
For test [10], the system named is UO-31 renal.

In the case of `COc1ccc(/C=C(/c2ccccc2)[N+](=O)[O-])cc1`, the GI50 in [1] was 1.03 µM; in [2] it was 2.04 µM; in test [3], 0.393 µM; in [4], 1.85 µM; in test [5], 2.04 µM; in test [6], 1.46 µM. In addition, the GI50 is 1.82 µM in test [7], 1.36 µM in [8], 1.65 µM in test [9] and 1.13 µM in test [10]. Moreover, the TGI in [1] was 2.29 µM; in test [2], 11.3 µM; in [3] it was greater than 100 µM; in [4], 3.5 µM; in [5] it was 4.16 µM; in [6], 3.21 µM. Moreover, the TGI stood at 3.77 µM in test [7], 2.9 µM in [8], 3.17 µM in test [9] and 2.35 µM in test [10].
Regarding `COC(=O)c1cc(/C=C/c2ccc(S(N)(=O)=O)cc2)ccc1O`, the GI50 in [1] was 20 µM; in test [2], 64.5 µM; in test [3], greater than 100 µM; in test [4], 24 µM; in [5], 27.5 µM; in test [6], 30.7 µM. Further, the GI50 was 37.3 µM in test [7], 29.3 µM in test [8], 38.2 µM in test [9] and 29.1 µM in test [10]. Besides, the TGI in [1] was greater than 100 µM; in test [2], greater than 100 µM; in [3], greater than 100 µM; in test [4], greater than 100 µM; in [5] it was 66.4 µM; in test [6], greater than 100 µM. The TGI in [7] is greater than 100 µM; in test [8], 89.9 µM; in test [9], greater than 100 µM; in test [10], greater than 100 µM.
Regarding `CC1=C(C(=O)Nc2ccccc2)C(c2ccc(C3C(C(=O)Nc4ccccc4)=C(C)NC(C)=C3C(=O)Nc3ccccc3)cc2)C(C(=O)Nc2ccccc2)=C(C)N1`, the TGI in test [1] was 4.52 µM; in [2] it was 3.77 µM; in test [3], greater than 53 µM; in [4], 5.01 µM; in [5], 8.29 µM; in test [6] it was 12.5 µM. For the same molecule, the TGI was 5.7 µM in [7], 4.71 µM in [8], 20.5 µM in test [9] and 23.1 µM in [10].
For `O=C(CSC(c1ccccc1)c1ccccc1)N/N=C/c1ccco1`, the GI50 in test [1] is 1.46 µM; in [2], 18.7 µM; in test [3], 2.16 µM; in [4], 2.03 µM; in test [5], 2.16 µM; in [6], 2.03 µM. The GI50 in test [7] is 2.25 µM; in test [8], 17.2 µM; in test [9] it was 36 µM; in test [10], 2.03 µM. The TGI in test [1] was found to be 2.98 µM; in [2], 48.3 µM; in test [3], 8.74 µM; in [4] it was 15.5 µM; in test [5], 12.8 µM; in test [6] it was 9 µM. In addition, the TGI in test [7] was greater than 12.5 µM; in test [8], 35.7 µM; in test [9], greater than 100 µM; in [10] it was 10.3 µM.
Consider `CCCCCc1ccc(S(=O)(=O)Nc2cc(-c3csc(NC(C)=O)n3)ccc2N2CCN(C)CC2)cc1`, for which the GI50 is 1.11 µM in test [1]; 1.99 µM in test [2]; 1.03 µM in [3]; 5.65 µM in test [4]; 4.77 µM in test [5]; 2.23 µM in test [6]. For the same molecule, the GI50 in test [7] was 5.52 µM; in test [8], 4.7 µM; in [9] it was 5.49 µM; in test [10] it was 3.53 µM. The TGI is 4.43 µM in [1]; 8.29 µM in test [2]; 3.4 µM in test [3]; 11 µM in test [4]; 9.9 µM in test [5]; 7.72 µM in test [6]. Besides, the TGI came to 11.6 µM in [7], 9.25 µM in [8], 10.4 µM in [9] and 7.57 µM in test [10].
Turning to `CCN(CC)CCNC(=O)c1ccc(C)c(OCc2ccccc2)c1[N+](=O)[O-]`, the TGI in test [1] was 47.8 µM; in test [2] it was 38.7 µM; in test [3] it was 49.2 µM; in test [4], greater than 81.1 µM; in [5], greater than 100 µM; in test [6], greater than 100 µM. Moreover, the TGI in [7] is greater than 100 µM; in test [8], greater than 100 µM; in test [9], greater than 100 µM; in [10] it was 50.5 µM.
Regarding `Cc1cc(C)n(-c2nnc3n2N=C(c2ccc(-c4ccccc4)cc2)CS3)n1`, the GI50 was 3.39 µM in [1]; 3.11 µM in [2]; 3.58 µM in [3]; 3.49 µM in [4]; 3.35 µM in test [5]; 3.15 µM in test [6]. The GI50 in test [7] is 3.96 µM; in test [8] it was 3.92 µM; in [9], 3.98 µM; in test [10] it was 3.38 µM. Moreover, the TGI in [1] was greater than 100 µM; in [2], 12.1 µM; in [3] it was greater than 100 µM; in test [4] it was greater than 100 µM; in [5], greater than 100 µM; in [6] it was greater than 100 µM. The TGI in test [7], in test [8], in [9] and in test [10] was greater than 100 µM in each case.
On to `Nc1ccccc1SC1CC(=O)N(c2ccc(Cl)c(Cl)c2)C1=O` (stereo not given), for which the GI50 in test [1] is 24.2 µM; in test [2], 42.1 µM; in [3] it was 15 µM; in [4], 16.2 µM; in test [5] it was 32 µM; in test [6], 8.78 µM. Moreover, the GI50 is 29.7 µM in test [7], 28.5 µM in [8], 31.6 µM in [9] and 11.7 µM in test [10]. The TGI in [1], in test [2], in test [3], in test [4], in test [5] and in [6] was greater than 100 µM in each case. Moreover, the TGI is greater than 100 µM in test [7], greater than 100 µM in test [8], greater than 100 µM in test [9] and 45 µM in [10].
